Test results: DBAASP
In brackets after ≈: the same amount, converted by molar mass.

Columns and labels:
Experiment in all cases: ≥ marks a high value that may be exact or a test limit, other limits are often not marked, values filed in µg/mL are converted to µM
Penicillium sp. PHI-8 = system: Penicillium sp. PHI-8
[1] = system: Fusarium oxysporum CECT 2866
[2] = system: Penicillium digitatum PHI-26
[3] = system: Aspergillus nidulans biA1
Alternaria sp. PHI-44 = system: Alternaria sp. PHI-44
[4] = system: Escherichia coli DH5alpha
[5] = system: Saccharomyces cerevisiae FY1679
[6] = system: Bacillus subtilis CECT 498
[7] = system: Penicillium expansum PHI-65
[8] = system: Penicillium italicum PHI-1
Pyricularia grisea PR-9 = system: Pyricularia grisea PR-9
Botrytis cinerea #8 = system: Botrytis cinerea #8
[9] = system: Staphylococcus aureus ATCC 29213
[10] = system: Escherichia coli ATCC 25404
[11] = system: Staphylococcus aureus ATCC 43300
[12] = system: Staphylococcus epidermidis ATCC 9709
[13] = system: Micrococcus luteus ATCC 10420
Salmonella typhimurium = system: Salmonella typhimurium
Escherichia coli O157 = system: Escherichia coli O157
Listeria monocytogenes = system: Listeria monocytogenes
[14] = system: Yersinia pseudotuberculosis YPIII
Bacillus megaterium Bm11 = system: Bacillus megaterium Bm11
[15] = system: Escherichia coli ATCC 25922
[16] = system: Staphylococcus aureus Cowan 1
[17] = system: Candida albicans ATCC 10231
Staphylococcus capitis 1 = system: Staphylococcus capitis 1
[18] = system: Candida albicans ATCC 90028
[19] = system: Klebsiella pneumoniae ATCC 700603
[20] = system: Staphylococcus aureus ATCC 25923
[21] = system: Acinetobacter baumannii NM8
[22] = system: Pseudomonas aeruginosa ATCC 27853
[23] = system: Staphylococcus epidermidis RP62A/1
[24] = system: Staphylococcus epidermidis RP62A
[25] = system: Escherichia coli ATCC 25726
[26] = system: Stenotrophomonas maltophilia B32/4
[27] = system: Bacillus subtilis CCT 2576
[28] = system: Staphylococcus aureus ATCC 6538
[29] = system: Pseudomonas aeruginosa ATCC 15422
[30] = system: Bacillus subtilis KCTC 1918
[31] = system: Staphylococcus aureus KCTC 1621
[32] = system: Escherichia coli CCARM 1238
[33] = system: Candida albicans CCARM 14007
[34] = system: Candida albicans CCARM 14001
[35] = system: Pseudomonas aeruginosa KCTC 1637
[36] = system: Staphylococcus aureus CCARM 3108
[37] = system: Candida albicans KCTC 7270
[38] = system: Escherichia coli KCTC 1682
[39] = system: Salmonella typhimurium CCARM 8007
[40] = system: Salmonella typhimurium KCTC 1926
[41] = system: Staphylococcus aureus CCARM 3089
[42] = system: Escherichia coli CCARM 1229
[43] = system: Staphylococcus aureus CCARM 3126
[44] = system: Staphylococcus aureus CCARM 3114
[45] = system: Salmonella typhimurium CCARM 8009
[46] = system: Listeria monocytogenes KCTC 3710
[47] = system: Staphylococcus aureus CCARM 3090
[48] = system: Salmonella typhimurium CCARM 8013

## CSCC[C@H](NC(=O)[C@H](CCCN=C(N)N)NC(=O)[C@H](Cc1c[nH]c2ccccc12)NC(=O)[C@H](CCC(N)=O)NC(=O)[C@H](Cc1c[nH]c2ccccc12)NC(=O)[C@H](CCCN=C(N)N)NC(=O)[C@H](CCCN=C(N)N)NC(=O)[C@H](CS)NC(=O)[C@H](CCCCN)NC(=O)[C@H](Cc1ccccc1)NC(C)=O)C(=O)N[C@@H](CCCCN)C(=O)N[C@@H](CCCCN)C(=O)N[C@@H](CC(C)C)C(=O)NCC(=O)N[C@@H](C)C(N)=O [FKCRRWQWRMKKLGA]
Penicillium sp. PHI-8
  MIC: 8 µM (≈ 16.3 µg/mL)
[1]
  MIC: 8 µM (≈ 16.3 µg/mL)
[2]
  MIC: 4 µM (≈ 8.14 µg/mL)
[3]
  MIC: 4 µM (≈ 8.14 µg/mL)
Alternaria sp. PHI-44
  MIC: 16 µM (≈ 32.6 µg/mL)
[4]
  MIC: 16 µM (≈ 32.6 µg/mL)
[5]
  MIC: ≥ 32 µM
[6]
  MIC: 16 µM (≈ 32.6 µg/mL)
[7]
  MIC: 8 µM (≈ 16.3 µg/mL)
[8]
  MIC: 4 µM (≈ 8.14 µg/mL)
Pyricularia grisea PR-9
  MIC: ≥ 32 µM
Botrytis cinerea #8
  MIC: 16 µM (≈ 32.6 µg/mL)

## CC(C)C[C@H](NC(=O)[C@H](CC(C)C)NC(=O)[C@H](CCCCN)NC(=O)[C@H](CO)NC(=O)[C@H](CC(C)C)NC(=O)[C@H](C)NC(=O)[C@H](Cc1cnc[nH]1)NC(=O)[C@H](Cc1ccccc1)NC(=O)[C@H](CC(C)C)NC(=O)[C@H](C)NC(=O)CNC(=O)[C@H](CC(C)C)NC(=O)[C@@H](N)Cc1ccccc1)C(=O)O [FLGALFHALSKLL]
[9]
  MIC: 4 µM (≈ 5.72 µg/mL)
[10]
  MIC: ≥ 64 µM
[11]
  MIC: 4 µM (≈ 5.72 µg/mL)
[12]
  MIC: 4 µM (≈ 5.72 µg/mL)
[13]
  MIC: 2 µM (≈ 2.86 µg/mL)
Salmonella typhimurium
  MIC: ≥ 64 µM
Escherichia coli O157
  MIC: ≥ 64 µM
Listeria monocytogenes
  MIC: 8 µM (≈ 11.4 µg/mL)

## CC[C@H](C)[C@H](NC(=O)CNC(=O)[C@H](CO)NC(=O)[C@H](CC(C)C)NC(=O)[C@@H](NC(=O)[C@H](CCCN=C(N)N)NC(=O)CNC(=O)[C@@H](NC(=O)[C@H](CC(C)C)NC(=O)[C@@H]1CCCN1C(=O)[C@H](CC(C)C)NC(=O)[C@@H](N)Cc1ccccc1)[C@@H](C)CC)C(C)C)C(=O)N[C@@H](C)C(N)=O [FLPLIGRVLSGIA]
[14]
  MIC: ≥ 40 µM
Bacillus megaterium Bm11
  MIC: 20 µM (≈ 27.1 µg/mL)
[15]
  MIC: > 40 µM
[16]
  MIC: ≥ 40 µM
[17]
  MIC: 40 µM (≈ 54.2 µg/mL)
Staphylococcus capitis 1
  MIC: ≥ 40 µM

## CC[C@H](C)[C@H](N)C(=O)N[C@@H](CC(C)C)C(=O)N[C@@H](CCCCN)C(=O)N[C@@H](CCCCN)C(=O)N[C@@H](CC(C)C)C(=O)N[C@@H](CC(C)C)C(=O)N[C@@H](CO)C(=O)N[C@H](C(=O)N[C@@H](C)C(=O)N[C@@H](C)C(=O)NCC(=O)N[C@@H](CC(C)C)C(=O)N[C@@H](CC(C)C)C(=O)N[C@@H](CO)C(=O)N[C@@H](CC(N)=O)C(=O)N[C@@H](CC(C)C)C(N)=O)[C@@H](C)O [ILKKLLSTAAGLLSNL]
[18]
  MIC: ≥ 32 µM
[19]
  MIC: 128 µM (≈ 212 µg/mL)
[20]
  MIC: 64 µM (≈ 106 µg/mL)
[21]
  MIC: 16 µM (≈ 26.5 µg/mL)
[22]
  MIC: 128 µM (≈ 212 µg/mL)
[23]
  MIC: 16 µM (≈ 26.5 µg/mL)
[24]
  MIC: ≥ 32 µM
[25]
  MIC: ≥ 32 µM
[26]
  MIC: ≥ 32 µM

## CC[C@H](C)[C@H](N)C(=O)N[C@@H](CC(N)=O)C(=O)N[C@@H](Cc1c[nH]c2ccccc12)C(=O)N[C@@H](CCCCN)C(=O)N[C@@H](CCCCN)C(=O)N[C@@H](CC(C)C)C(=O)N[C@@H](CC(C)C)C(=O)N[C@@H](CC(=O)O)C(=O)N[C@@H](C)C(=O)N[C@@H](C)C(=O)N[C@@H](CCCCN)C(=O)N[C@@H](CCC(N)=O)C(=O)N[C@H](C(=O)N[C@@H](CC(C)C)C(N)=O)[C@@H](C)CC [INWKKLLDAAKQIL]
[27]
  MIC: 2.96 µM (≈ 4.9 µg/mL)
[15]
  MIC: 5.8 µM (≈ 9.59 µg/mL)
[28]
  MIC: 7.8 µM (≈ 12.9 µg/mL)
[29]
  MIC: 28.3 µM (≈ 46.8 µg/mL)

## NCCCC[C@H](NC(=O)[C@H](Cc1c[nH]c2ccccc12)NC(=O)[C@@H](N)CCCCN)C(=O)N[C@@H](Cc1c[nH]c2ccccc12)C(N)=O [KWKW]
[30]
  MIC: ≥ 200 µM
[31]
  MIC: ≥ 200 µM
[32]
  MIC: ≥ 200 µM
[33]
  MIC: ≥ 128 µM
[34]
  MIC: ≥ 128 µM
[35]
  MIC: ≥ 200 µM
[36]
  MIC: ≥ 200 µM
[37]
  MIC: ≥ 128 µM
[38]
  MIC: ≥ 200 µM
[39]
  MIC: ≥ 309 µM
[40]
  MIC: ≥ 200 µM
[41]
  MIC: ≥ 200 µM
[42]
  MIC: ≥ 200 µM
[43]
  MIC: ≥ 200 µM
[44]
  MIC: ≥ 200 µM
[45]
  MIC: ≥ 200 µM
[46]
  MIC: ≥ 200 µM
[47]
  MIC: ≥ 200 µM
[48]
  MIC: ≥ 200 µM
